Assays:
Assay type in all cases: functional
Rattus norvegicus [1] = assay: Antiinflammatory activity in Wister albino rat assessed as inhibition of carrageenan-induced paw edema at 50 mg/kg, po administered 30 mins before carrageenan challenge measured after 3 hrs relative to control
Mus musculus [2] = assay: Analgesic activity in albino mouse assessed as response latency time to pain stimulus at 25 mg/kg, po after 1 hr by hot plate method; set-up: unit not given here
Mus musculus [3] = assay: Analgesic activity in albino mouse assessed as response latency time to pain stimulus at 25 mg/kg, po after 3 hrs by hot plate method; set-up: unit not given here
Staphylococcus aureus [4] = assay: Antibacterial activity against Staphylococcus aureus after 24 hrs by disk diffusion method
Staphylococcus aureus [5] = assay: Antibacterial activity against Staphylococcus aureus after 24 hrs by broth dilution technique
Escherichia coli [6] = assay: Antibacterial activity against Escherichia coli after 24 hrs by disk diffusion method
Escherichia coli [7] = assay: Antibacterial activity against Escherichia coli after 24 hrs by broth dilution technique
Pseudomonas aeruginosa [8] = assay: Antibacterial activity against Pseudomonas aeruginosa after 24 hrs by disk diffusion method
Pseudomonas aeruginosa [9] = assay: Antibacterial activity against Pseudomonas aeruginosa after 24 hrs by broth dilution technique
Klebsiella pneumoniae [10] = assay: Antibacterial activity against Klebsiella pneumoniae after 24 hrs by disk diffusion method
Klebsiella pneumoniae [11] = assay: Antibacterial activity against Klebsiella pneumoniae after 24 hrs by broth dilution technique
Streptococcus pyogenes [12] = assay: Antibacterial activity against Streptococcus pyogenes after 24 hrs by disk diffusion method
Streptococcus pyogenes [13] = assay: Antibacterial activity against Streptococcus pyogenes after 24 hrs by broth dilution technique
Candida albicans [14] = assay: Antifungal activity against Candida albicans after 48 hrs by twofold broth dilution method
Aspergillus niger [15] = assay: Antifungal activity against Aspergillus niger after 3 to 4 days by agar diffusion method
Aspergillus niger [16] = assay: Antifungal activity against Aspergillus niger after 48 hrs by twofold broth dilution method
Aspergillus fumigatus [17] = assay: Antifungal activity against Aspergillus fumigatus after 3 to 4 days by agar diffusion method
Aspergillus fumigatus [18] = assay: Antifungal activity against Aspergillus fumigatus after 48 hrs by twofold broth dilution method
[19] = system: Trichophyton mentagrophytes; assay: Antifungal activity against Trichophyton mentagrophytes after 3 to 4 days by agar diffusion method
[20] = system: Trichophyton mentagrophytes; assay: Antifungal activity against Trichophyton mentagrophytes after 48 hrs by twofold broth dilution method
Talaromyces marneffei [21] = assay: Antifungal activity against Penicillium marneffei after 48 hrs by twofold broth dilution method
Candida albicans [22] = assay: Antifungal activity against Candida albicans after 3 to 4 days by agar diffusion method
Talaromyces marneffei [23] = assay: Antifungal activity against Penicillium marneffei after 3 to 4 days by agar diffusion method
Rattus norvegicus [24] = assay: Antiinflammatory activity in Wister albino rat assessed as inhibition carrageenan-induced paw edema at 2 mg/kg, po administered 30 mins before carrageenan challenge measured after 3 hrs relative to control
Mus musculus [25] = assay: Analgesic activity in albino mouse assessed as response latency time to pain stimulus at 5 mg/kg, ip after 1 hr by hot plate method; conditions: route intraperitoneal
Mus musculus [26] = assay: Analgesic activity in albino mouse assessed as response latency time to pain stimulus at 5 mg/kg, ip after 3 hrs by hot plate method; conditions: route intraperitoneal

Row | Compound | inhibition in vivo at 50 mg/kg (Rattus norvegicus [1]) [%] | Time (Mus musculus [2]) | Time (Mus musculus [3]) | Diameter of inhibition zone (Staphylococcus aureus [4]) [mm] | MIC (Staphylococcus aureus [5]) [microg/cm3] | Diameter of inhibition zone (Escherichia coli [6]) [mm] | MIC (Escherichia coli [7]) [microg/cm3] | Diameter of inhibition zone (Pseudomonas aeruginosa [8]) [mm] | MIC (Pseudomonas aeruginosa [9]) [microg/cm3] | Diameter of inhibition zone (Klebsiella pneumoniae [10]) [mm] | MIC (Klebsiella pneumoniae [11]) [microg/cm3] | Diameter of inhibition zone (Streptococcus pyogenes [12]) [mm] | MIC (Streptococcus pyogenes [13]) [microg/cm3] | MIC (Candida albicans [14]) [microg/cm3] | Diameter of inhibition zone (Aspergillus niger [15]) [mm] | MIC (Aspergillus niger [16]) [microg/cm3] | Diameter of inhibition zone (Aspergillus fumigatus [17]) [mm] | MIC (Aspergillus fumigatus [18]) [microg/cm3] | MIC [20] [microg/cm3] | MIC (Talaromyces marneffei [21]) [microg/cm3] | further results
1 | Cc1ccc(-c2csc3nc(-c4cc(F)c(Cl)cc4Cl)nn23)cc1 | 0 | 8.2 | 8.4 | 15 | 6.25 | 13 | 12.5 | 14 | 6.25 | 15 | 6.25 | 14 | 12.5 | >100 | 11 | 12.5 | 16 | 6.25 | 25 | >100 | Diameter of inhibition zone [19]: 8 mm
2 | Fc1ccc(-c2csc3nc(-c4cc(F)c(Cl)cc4Cl)nn23)cc1 | 48.8 | 8.3 | 8.2 | 18 | 12.5 | 23 | 6.25 | 28 | 6.25 | 20 | 6.25 | 21 | 6.25 | 6.25 | 21 | 6.25 | 29 | 6.25 | 6.25 | 6.25 | Diameter of inhibition zone (Candida albicans [22]): 19 mm; Diameter of inhibition zone [19]: 17 mm; Diameter of inhibition zone (Talaromyces marneffei [23]): 21 mm
3 | O=[N+]([O-])c1ccc(-c2csc3nc(-c4cc(F)c(Cl)cc4Cl)nn23)cc1 | 10.9 | 11.2 | 10.9 | 12 | 12.5 | 15 | 6.25 | 15 | 6.25 | 11 | 12.5 | 12 | 12.5 | 6.25 | – | >100 | 17 | 6.25 | 25 | 6.25 | Diameter of inhibition zone (Candida albicans [22]): 16 mm; Diameter of inhibition zone [19]: 10 mm; Diameter of inhibition zone (Talaromyces marneffei [23]): 18 mm
4 | Fc1cc(-c2nc3scc(-c4cc(F)c(Cl)cc4Cl)n3n2)c(Cl)cc1Cl | 59.4 | 14.21 | 13.6 | 23 | 6.25 | 28 | 6.25 | 30 | 6.25 | 19 | 6.25 | 24 | 6.25 | 6.25 | 22 | 12.5 | 20 | 6.25 | 6.25 | 6.25 | Diameter of inhibition zone (Candida albicans [22]): 18 mm; Diameter of inhibition zone [19]: 18 mm; Diameter of inhibition zone (Talaromyces marneffei [23]): 23 mm
5 | Fc1cc(-c2nc3scc(-c4ccc(Br)cc4)n3n2)c(Cl)cc1Cl | 25 | 14.8 | 13.9 | 21 | 6.25 | 24 | 6.25 | 29 | 6.25 | 19 | 6.25 | 25 | 6.25 | 12.5 | 9 | 25 | 12 | 12.5 | >100 | 25 | Diameter of inhibition zone (Candida albicans [22]): 14 mm; Diameter of inhibition zone (Talaromyces marneffei [23]): 10 mm
6 | COc1ccc(-c2csc3nc(-c4cc(F)c(Cl)cc4Cl)nn23)cc1 | 40.6 | 11.1 | 11.96 | 21 | 6.25 | 25 | 6.25 | 30 | 6.25 | 19 | 6.25 | 23 | 6.25 | 6.25 | 20 | 6.25 | – | >100 | 12.5 | 6.25 | Diameter of inhibition zone (Candida albicans [22]): 17 mm; Diameter of inhibition zone [19]: 14 mm; Diameter of inhibition zone (Talaromyces marneffei [23]): 17 mm
7 | Fc1cc(-c2nc3scc(-c4ccc(Cl)cc4)n3n2)c(Cl)cc1Cl | 42.2 | 13.2 | 12.9 | 26 | 6.25 | 26 | 6.25 | 31 | 6.25 | 17 | 6.25 | 19 | 6.25 | 6.25 | 24 | 6.25 | 19 | 6.25 | 6.25 | 6.25 | Diameter of inhibition zone (Candida albicans [22]): 20 mm; Diameter of inhibition zone [19]: 19 mm; Diameter of inhibition zone (Talaromyces marneffei [23]): 19 mm
8 | Fc1cc(-c2nc3scc(-c4ccc(Cl)cc4Cl)n3n2)c(Cl)cc1Cl | 17.2 | 8.96 | 9.6 | 14 | 12.5 | 11 | 12.5 | 13 | 12.5 | 13 | 12.5 | 15 | 6.25 | 25 | 14 | 12.5 | 8 | 25 | >100 | 12.5 | Diameter of inhibition zone (Candida albicans [22]): 10 mm; Diameter of inhibition zone (Talaromyces marneffei [23]): 12 mm
9 | C[C@@H]1[C@H](O)[C@@H](C)/C=C/C=C/C=C/C=C/C=C/C=C/C=C/[C@H](O[C@@H]2O[C@H](C)[C@@H](O)[C@H](N)[C@@H]2O)C[C@@H]2O[C@](O)(C[C@@H](O)C[C@@H](O)[C@H](O)CC[C@@H](O)C[C@@H](O)CC(=O)O[C@H]1C)C[C@H](O)[C@H]2C(=O)O [AMPHOTERICIN B] | – | – | – | – | – | – | – | – | – | – | – | – | – | 6.25 | 25 | 12.5 | 21 | 6.25 | 6.25 | 6.25 | Diameter of inhibition zone (Candida albicans [22]): 20 mm; Diameter of inhibition zone [19]: 19 mm; Diameter of inhibition zone (Talaromyces marneffei [23]): 23 mm
10 | O=C(O)c1cn(C2CC2)c2cc(N3CCNCC3)c(F)cc2c1=O [CIPROFLOXACIN] | – | – | – | 23 | 6.25 | 29 | 6.25 | 32 | 6.25 | 21 | 6.25 | 25 | 6.25 | – | – | – | – | – | – | – | –
11 | COc1ccc2c(c1)c(CC(=O)O)c(C)n2C(=O)c1ccc(Cl)cc1 [INDOMETHACIN] | – | – | – | – | – | – | – | – | – | – | – | – | – | – | – | – | – | – | – | – | inhibition in vivo at 2 mg/kg (Rattus norvegicus [24]): 62.9%
12 | CCOC(=O)C1(c2ccccc2)CCN(C)CC1 [MEPERIDINE] | – | – | – | – | – | – | – | – | – | – | – | – | – | – | – | – | – | – | – | – | Time (Mus musculus [25]): 16.4 h; Time (Mus musculus [26]): 14.3 h
